# Measured values reported in US20070037752A1, “Novel alanyl-amino peptidase inhibitors for functionally influencing different cells and treating immunological, inflammatory, neuronal, and other diseases” (priority 2003, published 2007).
# Target: alanyl aminopeptidases (APN) (Homo sapiens, UniProt P15144)
# Assay: Inhibition of alanyl aminopeptidase enzymatic activity, fluorogenic substrate (Ala)2-rhodamine 110
# Format: biochemical
# Conditions: Table 3, starred values = ID50; read-out: ID50 APN (values marked with *)
# Procedure: The inhibition characteristics measured are referred to as IC-50 values or ID50 values (the latter marked with “*”) for said enzyme. The enzymatic activity was determined by means of the fluorogenic substrate/product (Ala)2-rhodamine 110.
# alanyl aminopeptidases (APN), sequence (P15144 whole entry, species assumed): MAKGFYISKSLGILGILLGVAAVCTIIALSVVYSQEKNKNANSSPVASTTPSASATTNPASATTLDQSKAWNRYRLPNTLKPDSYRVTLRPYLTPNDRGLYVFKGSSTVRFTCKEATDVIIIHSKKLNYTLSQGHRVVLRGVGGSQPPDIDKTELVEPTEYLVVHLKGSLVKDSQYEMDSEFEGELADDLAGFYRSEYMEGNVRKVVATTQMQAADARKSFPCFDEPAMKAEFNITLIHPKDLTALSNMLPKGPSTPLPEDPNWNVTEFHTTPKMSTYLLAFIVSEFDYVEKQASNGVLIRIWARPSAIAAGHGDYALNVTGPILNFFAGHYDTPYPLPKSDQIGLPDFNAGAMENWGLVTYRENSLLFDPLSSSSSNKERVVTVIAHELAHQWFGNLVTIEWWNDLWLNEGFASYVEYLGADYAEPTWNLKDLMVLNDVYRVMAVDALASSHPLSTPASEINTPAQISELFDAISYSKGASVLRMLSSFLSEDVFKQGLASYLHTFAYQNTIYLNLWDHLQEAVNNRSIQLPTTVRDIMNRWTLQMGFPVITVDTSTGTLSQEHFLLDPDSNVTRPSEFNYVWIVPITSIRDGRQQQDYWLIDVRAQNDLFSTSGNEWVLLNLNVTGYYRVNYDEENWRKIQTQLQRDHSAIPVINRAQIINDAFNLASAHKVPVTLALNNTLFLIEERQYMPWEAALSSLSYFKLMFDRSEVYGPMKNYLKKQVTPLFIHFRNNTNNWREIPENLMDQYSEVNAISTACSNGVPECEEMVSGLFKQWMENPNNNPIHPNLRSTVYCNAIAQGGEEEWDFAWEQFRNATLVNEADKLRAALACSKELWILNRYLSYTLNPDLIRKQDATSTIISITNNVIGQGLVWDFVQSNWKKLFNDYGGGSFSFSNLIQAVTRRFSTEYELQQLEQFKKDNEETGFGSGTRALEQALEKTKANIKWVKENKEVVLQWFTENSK
row,IC50 [µM],Structure (SMILES)
1,321,CC(C)(C)c1ccc2c(c1)C1c3ccc(C(C)(C)C)cc3C2C2C(=O)N(c3cccc(Cl)c3)C(=O)C12 (stereo not drawn) [A3.348]
2,323,C/C(=N\NC(=O)c1ccn(C)n1)c1ccco1 [A3.349]
3,336,CCc1ccc(N2C(=O)C3C(c4cccc(Cl)c4)OC4(C(=O)c5ccccc5C4=O)C3C2=O)cc1 (stereo not drawn) [A3.350]
4,422,C/C(=N\NC(=O)COc1ccc(C)cc1[N+](=O)[O-])c1ccco1 [A3.351]
5,451,CCOc1ccc(C(=O)N/N=C(/C)c2ccco2)cc1 [A3.352]

# Same assay, conditions: Table 4, unstarred values; read-out: IC50APN
row,Structure (SMILES),IC50 [µM]
1,O=C(N/N=C/c1ccco1)c1cc(-c2ccco2)n[nH]1 [A4.058],20.9
2,O=C(COc1ccc2ccccc2c1)N/N=C/c1c(Br)cc(Br)c(O)c1Br [A4.059],21
3,COc1ccc(C(=O)N/N=C/c2cc(Br)c(C)o2)cc1 [A4.060],21.8
4,Cc1ccc(/C=N/NC(=O)COc2ccccc2C)o1 [A4.061],22.2
5,O=C(N/N=C/c1ccco1)c1ccc(=O)[nH]n1 [A4.063],22.4
6,O=C(N/N=C/c1ccco1)c1cccc(NC(=O)c2cccc(Br)c2)c1 [A4.064],22.4
7,COc1ccc(C(=O)N/N=C/c2ccco2)cc1 [A4.065],22.6
8,CCN(CC)c1ccc(/C=N/NC(=O)CNC(=O)/C=C/c2ccco2)cc1 [A4.066],22.8
9,Cc1ccc(/C=N/NC(=O)c2ccc(NC(=O)c3ccccc3C)cc2)o1 [A4.067],22.8
10,CC1=NNC(=O)C1CCC(=O)N/N=C\C=C\c1ccco1 (stereo not drawn) [A4.068],23
11,COc1cc(/C=N/NC(=O)/C(=C\c2ccc(N(C)C)cc2)NC(=O)c2ccccc2)cc([N+](=O)[O-])c1O [A4.069],23
12,Cc1cc(C)cc(OCC(=O)N/N=C/c2ccco2)c1 [A4.070],23.4
13,COc1ccc(CCCC(=O)N/N=C/c2ccco2)cc1 [A4.071],23.4
14,Cc1ccc(/C=N/NC(=O)c2ccc(O)cc2)o1 [A4.072],23.4
15,O=C(N/N=C/c1cc(Br)c(O)c(Br)c1O)/C(=C\c1ccc2c(c1)OCO2)NC(=O)c1ccccc1 [A4.073],23.6
16,O=C(N/N=C\c1ccco1)c1ccc(Br)cc1 [A4.074],24.5
17,Cc1ccc(C)n1-c1cccc(C(=O)N/N=C/c2cc(Br)c(O)c(Br)c2)c1 [A4.075],24.9
18,COc1cc(/C=N/NC(=O)/C(=C/c2cccs2)NC(=O)c2ccccc2)cc([N+](=O)[O-])c1O [A4.076],25.1

row,Structure (SMILES),IC50 [µM]
1,CCc1ccc(OCC(=O)N/N=C\c2ccco2)c([N+](=O)[O-])c1 [A4.077],25.1
2,O=C(N/N=C/c1cc([N+](=O)[O-])ccc1O)c1ccc(Cl)cc1 [A4.078],25.7
3,CCOc1ccc(Br)cc1C(=O)N/N=C/c1ccco1 [A4.079],25.8
4,O=C(N/N=C/c1ccco1)c1cccc(NC(=O)c2ccc(F)cc2)c1 [A4.080],25.9
5,O=C(CCCOc1ccc(Cl)cc1Cl)N/N=C/c1ccco1 [A4.081],26.3
6,Cc1ccc(/C=N/NC2=NC(=O)CS2)o1 [A4.082],26.4
7,Cc1ccc(/C=N/NC(=O)c2cc(O)cc(O)c2)o1 [A4.083],26.4
8,Cc1ccc(/C=N/NC(=O)c2nnn(-c3nonc3N)c2CN2CCOCC2)o1 [A4.084],26.7
9,CCCCCC(=O)N/N=C/c1ccco1 [A4.085],26.7
10,CCCOc1ccc(/C=C(\NC(=O)c2ccccc2)C(=O)N/N=C/c2ccco2)cc1 [A4.086],27.3
11,Cc1nn(-c2ccccc2)c(C)c1-c1cc(C(=O)N/N=C/c2ccco2)[nH]n1 [A4.087],27.4
12,CC(/C=N/NC(=O)c1ccco1)=C\c1ccco1 [A4.088],27.5
13,CC1SC(N/N=C/c2ccco2)=NC1=O (stereo not drawn) [A4.089],27.7
14,O=C(Cc1cccs1)N/N=C/C=C\c1ccco1 [A4.090],28
15,CC(/C=C/c1ccco1)=N\NC(=O)CNc1ccc2ccccc2c1 [A4.091],28.5
16,CC(N/N=C1/SC(CC(=O)O)C(=O)N1c1ccccc1)c1ccco1 (stereo not drawn) [A4.092],28.6
17,COc1ccc(/C(C)=N/NC(=O)CNC(=O)/C=C\c2ccco2)cc1 [A4.093],29.4
18,O=C(N/N=C/c1ccco1)c1cccc(NC(=O)c2ccccc2)c1 [A4.094],29.5

# Now from value to molecule:
row,IC50 [µM],Structure (SMILES)
1,20.6,O=C(N/N=C/c1ccco1)c1cccc(NC(=O)c2ccccc2Cl)c1 [A4.057]
2,20.5,COc1cc(Br)ccc1OCC(=O)N/N=C/c1cc(Br)c(O)c(O)c1Br [A4.056]
3,20.3,CC(=O)Oc1ccc([N+](=O)[O-])cc1/C=N/NC(=O)COc1cc(C)ccc1C(C)C [A4.055]
4,20.2,O=C(N/N=C/c1cc([N+](=O)[O-])ccc1O)c1ccc(O)cc1O [A4.054]
5,19.9,COc1ccc(/C(C)=N/NC(=O)CNC(=O)/C=C\c2ccco2)cc1OC [A4.053]
6,19.8,O=C(N/N=C/c1cc(Br)cc(Br)c1OC(=O)c1ccccc1)/C(=C/c1ccc2c(c1)OCO2)NC(=O)c1ccccc1 [A4.052]
7,19.5,CCCOc1ccccc1-c1c[nH]c(C(=O)N/N=C/c2ccco2)c1 [A4.051]
8,19.2,Cc1ccccc1S(=O)(=O)Nc1cccc(C(=O)N/N=C/c2ccco2)c1 [A4.049]
9,18.9,Cc1ccc(/C=N/NC(=O)c2cccc(CC(=O)c3ccccc3C)c2)o1 [A4.047]
10,18.7,O=C(Nc1ccccc1C(=O)N/N=C/c1ccco1)c1ccc(Cl)cc1Cl [A4.046]
11,18.4,Cc1ccc(/C=N/NC(=O)c2ccccc2OCc2ccccc2)o1 [A4.045]
12,17.7,Cc1ccc(/C=N/NC(=O)c2ccccc2Cl)o1 [A4.044]
13,17,COc1cc(/C=N/NC(=O)c2cc(-c3ccco3)n[nH]2)cc(OC)c1OC [A4.043]
14,16.8,O=C(N/N=C/c1ccco1)c1ccc(O)cc1 [A4.042]
15,16.7,COc1ccc(/C=C(/NC(=O)c2ccccc2)C(=O)N/N=C\C=C\c2ccc(C)o2)cc1OC [A4.041]
16,16.6,CC(C)c1cc(C(=O)N/N=C/c2ccco2)[nH]n1 [A4.040]
17,16,O=C(N/N=C/C=C\c1ccco1)c1ccco1 [A4.036]
18,16,O=C(N/N=C/c1ccco1)c1ccccc1O [A4.037]
19,16,Cc1ccc(/C=N/NC(=O)COc2ccc(Cl)cc2)o1 [A4.038]
20,15.6,O=C(CNC(=O)C(c1ccccc1)c1ccccc1)N/N=C/c1ccco1 [A4.034]
21,15.6,CC(C)C/C=N/NC(=O)c1ccc([N+](=O)[O-])cc1Cl [A4.035]
22,15,COc1ccc(OCC(=O)N/N=C/c2cc(Br)c(O)c(O)c2Br)c(Br)c1 [A4.033]
23,14.6,N/C(=N\N=C\c1ccco1)c1nonc1N [A4.032]
24,14.4,O=C(N/N=C/c1ccco1)c1cc(-c2ccc(F)cc2)n[nH]1 [A4.031]
25,14.3,O=C(N/N=C/c1ccco1)c1cc(C2CC2)n[nH]1 [A4.030]
26,13.9,O=C(COc1ccc2ccccc2c1)N/N=C/c1ccco1 [A4.029]
27,13.7,O=C(NN=C(/C=C/c1ccccc1)c1ccccc1)c1cc2ccccc2cc1O [A4.028]
28,13.6,O=C(COc1ccc(F)cc1)N/N=C/c1ccco1 [A4.026]

row,IC50 [µM],Structure (SMILES)
1,13.6,CCc1ccc(-c2cc(C(=O)N/N=C/c3c(C)nn(-c4ccccc4)c3C)[nH]n2)cc1 [A4.027]
2,13.5,COC(=O)N/N=C(C)\C=C\c1ccco1 [A4.025]
3,13.2,COc1cc(Br)cc(Br)c1OCC(=O)N/N=C/c1cc(Br)c(O)c(O)c1Br [A4.024]
4,12.9,O=C(COc1cccc2ccccc12)N/N=C/c1ccco1 [A4.023]
5,12.5,COCc1c(C(=O)N/N=C/c2ccc(C)o2)nnn1-c1nonc1N [A4.022]
6,12.3,Cc1nc(C)c(C(=O)N/N=C/c2ccco2)s1 [A4.021]
7,12.2,CCOc1cc(/C=N/NC(=O)CNC(=O)c2cccc(Cl)c2)ccc1OC(=O)c1cccs1 [A4.020]
8,12,C/C(=N\NC(=O)CNC(=O)/C=C/c1ccco1)c1ccc2ccccc2c1 [A4.019]
9,11.4,CC(NC(=O)C(=O)N/N=C\c1cc([N+](=O)[O-])ccc1O)c1ccccc1 (stereo not drawn) [A4.018]
10,11,COc1cc(Br)ccc1OCC(=O)N/N=C/C=C/c1ccco1 [A4.017]
11,10.9,Cc1ccc(/C=N/NC(=O)c2cn(-c3nonc3N)nn2)o1 [A4.016]
12,10.5,Cc1ccc(/C=N/NC(=O)c2cccc(Cl)c2)o1 [A4.015]
13,9.8,Cc1ccc(/C=N/NC(=O)c2cccc(NC(=O)c3ccc(F)cc3)c2)o1 [A4.014]
14,9.5,Cc1cc(I)ccc1NC(=O)CCC(=O)N/N=C/c1ccco1 [A4.048]
15,8,O=C(N/N=C\c1ccco1)c1ccc(S(=O)(=O)N2CCCCCC2)cc1 [A4.013]
16,7.8,Cc1cccc(NCC(=O)N/N=C/c2cc(Br)c(O)c(O)c2Br)c1 [A4.012]
17,7.6,CCN(CC)c1ccc(/C=C(\NC(=O)c2ccccc2)C(=O)N/N=C/c2ccc(O)c([N+](=O)[O-])c2)cc1 [A4.011]
18,7.2,COc1cc(Br)cc(Br)c1OCC(=O)N/N=C/c1cc(O)c(O)c(Br)c1Br [A4.010]
19,7,O=C(Cc1ccc(Br)c2ccccc12)N/N=C/c1ccc([N+](=O)[O-])c(O)c1 [A4.009]
20,6.9,Cc1ccc(/C=N/NC(=O)c2cn(-c3nonc3N)nn2)o1 [A4.008]
21,6.7,CCc1cccc(CC)c1NC(=S)N/N=C1\C(=O)N(CN2CC(C)CC(C)C2)c2ccccc21 (stereo not drawn) [A4.007]
22,6.6,Cc1c(Cl)cccc1NC(=O)C(=O)N/N=C/c1c(OCc2ccccc2)ccc2ccccc12 [A4.006]
23,5.8,O=C(N/N=C/c1cc(Cl)cc([N+](=O)[O-])c1O)c1ccccc1O [A4.005]
24,5.1,CCN(CC)c1ccc(/C=C(/NC(=O)c2ccccc2)C(=O)N/N=C/c2cc(I)c(O)c(I)c2)cc1 [A4.004]
25,5,COc1cc(Br)ccc1OCC(=O)N/N=C/c1cc(O)c(O)c(Br)c1Br [A4.003]
26,4.8,COc1ccc(/C=N/NC(=O)C2=C(C)Nc3ccccc3S2)cc1Cn1nc(C)c(Br)c1C [A4.002]
27,3.4,C/C(CC1N=NC([N+](=O)[O-])=N1)=N/NC(=O)COc1ccccc1[N+](=O)[O-] (stereo not drawn) [A4.001]
